Reference: ChEMBL document CHEMBL1201862, “PubChem BioAssay data set” (2004)
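The compound was tested at five concentrations on cells cultured in 96-well plates, with a 48-hour exposure period. Abbreviation: GI50, concentration required for 50% inhibition of growth.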 Activity calls are given as the source filed them. No stated cut-off is given here; in the data, active = GI50 up to about 1.1 µM and inactive = higher.

Key:
Experiment in all cases: growth of human tumour cells (NCI), 48 h
HCT-116 = system: HCT-116
HCT-15 = system: HCT-15
HOP-92 = system: HOP-92
LOX IMVI = system: LOX IMVI
Malme-3M = system: Malme-3M
NCI-H460 = system: NCI-H460
OVCAR-3 = system: OVCAR-3
OVCAR-5 = system: OVCAR-5
OVCAR-8 = system: OVCAR-8
PC-3 = system: PC-3
SF-268 = system: SF-268
SF-295 = system: SF-295
SF-539 = system: SF-539
SK-MEL-2 = system: SK-MEL-2
SK-MEL-5 = system: SK-MEL-5
SNB-75 = system: SNB-75
SR = system: SR
UO-31 = system: UO-31
CCRF-CEM = system: CCRF-CEM
HL-60 = system: HL-60

Measured: GI50

Nc1cc(N)c(/N=N/c2cccc3c(S(=O)(=O)O)cccc23)cc1/N=N/c1cc([N+](=O)[O-])ccc1O
inactive: HCT-116 32.7 µM | HOP-92 35.6 µM | LOX IMVI 13.6 µM | Malme-3M 17.3 µM | NCI-H460 29.1 µM | OVCAR-3 9.08 µM | OVCAR-5 23.3 µM | OVCAR-8 23.4 µM | PC-3 18.5 µM | SF-268 6.62 µM | SF-295 32.2 µM | SF-539 38 µM | SK-MEL-2 22.4 µM | SK-MEL-5 17.6 µM | SNB-75 49.1 µM | SR 13.5 µM | UO-31 19 µM
22.1 µM: HCT-15

O=C(CSC1=NCCN1)Nc1ccccc1
29.2 µM: HCT-15
inactive: CCRF-CEM 67.9 µM | HCT-116 23.8 µM | HOP-92 26.8 µM | LOX IMVI 18 µM | Malme-3M 24.8 µM | NCI-H460 31.1 µM | OVCAR-3 20.7 µM | OVCAR-5 29.3 µM | OVCAR-8 29.4 µM | PC-3 19.9 µM | SF-268 33.3 µM | SF-295 29.4 µM | SK-MEL-2 17.8 µM | SNB-75 21.5 µM | SR 44.3 µM | UO-31 27.4 µM

COC(=O)CCc1c(Cc2ccc[nH]2)[nH]c(C(=O)OCc2ccccc2)c1C
inactive: CCRF-CEM 60.7 µM | HCT-116 18.6 µM | HOP-92 23 µM | LOX IMVI 19.7 µM | Malme-3M 18.9 µM | NCI-H460 > 100 µM | OVCAR-3 15.8 µM | OVCAR-5 35.9 µM | OVCAR-8 24.8 µM | PC-3 18.2 µM | SF-268 23.2 µM | SF-295 24.6 µM | SF-539 19.1 µM | SK-MEL-2 15.4 µM | SK-MEL-5 15.8 µM | SR 30.8 µM
16.1 µM: HCT-15

C[C@H](N)C(=O)N[C@@H]1[C@H]2C(=C(O)C[C@@H](O)[C@@H]2O)C(=O)O[C@]1(C)C(Cl)Cl [BACTOBOLIN]
0.597 µM: HCT-15
active: HCT-116 0.145 µM | HOP-92 0.111 µM | LOX IMVI 0.0946 µM | Malme-3M 0.278 µM | NCI-H460 0.111 µM | OVCAR-3 0.34 µM | OVCAR-5 0.604 µM | OVCAR-8 0.167 µM | PC-3 0.232 µM | SF-268 0.184 µM | SF-295 0.18 µM | SF-539 0.229 µM | SK-MEL-2 0.222 µM | SK-MEL-5 0.129 µM | SNB-75 0.185 µM | SR 0.0776 µM | UO-31 0.979 µM

COC(=O)C12C(=O)CC3CCC1C32C(=O)OC (configuration not stated)
inactive: CCRF-CEM > 100 µM | HCT-116 > 100 µM | LOX IMVI > 100 µM | Malme-3M > 100 µM | NCI-H460 > 100 µM | OVCAR-3 > 100 µM | OVCAR-5 > 100 µM | OVCAR-8 > 100 µM | PC-3 > 100 µM | SF-268 > 100 µM | SF-295 > 100 µM | SF-539 > 100 µM | SK-MEL-2 > 100 µM | SK-MEL-5 > 100 µM | SNB-75 > 100 µM | SR > 100 µM | UO-31 > 100 µM
> 100 µM: HCT-15

CCOC(=O)Cc1c(C(=O)OCC)[n+]([O-])c2cc(Cl)c(Cl)cc2[n+]1[O-]
1.42 µM: HCT-15
inactive: CCRF-CEM 3.13 µM | HCT-116 1.77 µM | HL-60 2.81 µM | LOX IMVI 2 µM | Malme-3M 1.4 µM | NCI-H460 1.45 µM | OVCAR-3 1.87 µM | OVCAR-5 2.58 µM | OVCAR-8 2.34 µM | PC-3 2.1 µM | SF-268 2.44 µM | SF-295 3.66 µM | SF-539 2.08 µM | SK-MEL-2 2.59 µM | SK-MEL-5 1.47 µM | SNB-75 1.53 µM | UO-31 1.77 µM
active: SR 0.336 µM

CC(=O)Nc1ccc2nc(N)n[n+]([O-])c2c1
> 100 µM: HCT-15
inactive: CCRF-CEM > 100 µM | HCT-116 > 100 µM | HL-60 > 100 µM | LOX IMVI > 100 µM | NCI-H460 > 100 µM | OVCAR-3 > 100 µM | OVCAR-5 > 100 µM | OVCAR-8 > 100 µM | PC-3 > 100 µM | SF-268 > 100 µM | SF-295 > 100 µM | SF-539 > 100 µM | SK-MEL-2 > 100 µM | SK-MEL-5 > 100 µM | SNB-75 41.4 µM | SR > 100 µM | UO-31 > 100 µM

COC(C/C=C\C=C\CC/C=C/CC(C)/C=C/C(=C\C(=O)O)CC(=O)O)/C(C)=C\C=C(/C)C(=O)O (configuration not stated)
inactive: CCRF-CEM > 100 µM | HCT-116 > 100 µM | HOP-92 > 100 µM | Malme-3M > 100 µM | NCI-H460 > 100 µM | OVCAR-3 > 100 µM | OVCAR-5 > 100 µM | PC-3 > 100 µM | SF-268 > 100 µM | SF-295 > 100 µM | SK-MEL-2 > 100 µM | SK-MEL-5 99.3 µM | SNB-75 58.3 µM | SR > 100 µM | UO-31 > 100 µM
> 100 µM: HCT-15

CC(=O)O[C@H]1C(=O)[C@@]2(C)[C@H]([C@H](OC(=O)c3ccccc3)[C@]3(O)C[C@H](OC(=O)[C@H](O)[C@@H](NC(=O)c4ccco4)c4ccccc4)C(C)=C1C3(C)C)[C@]1(OC(C)=O)CO[C@@H]1C[C@@H]2O
active: CCRF-CEM < 0.00125 µM | HCT-116 < 0.00125 µM | HL-60 < 0.00125 µM | LOX IMVI < 0.00125 µM | NCI-H460 < 0.00125 µM | OVCAR-3 < 0.00125 µM | OVCAR-5 < 0.00125 µM | OVCAR-8 < 0.00125 µM | PC-3 < 0.00125 µM | SF-268 0.00162 µM | SF-295 0.00624 µM | SF-539 < 0.00125 µM | SK-MEL-2 < 0.00125 µM | SK-MEL-5 < 0.00125 µM | SNB-75 < 0.00125 µM | SR < 0.00125 µM | UO-31 0.627 µM
0.249 µM: HCT-15

COc1ccc(CC2C(=O)NC(C)C(=O)N(C)C3Cc4ccc(cc4)Oc4cc(ccc4O)CC(C(=O)NC(C)C(=O)NC(C)C(=O)N2C)N(C)C3=O)cc1 (configuration not stated)
0.851 µM: HCT-15
active: CCRF-CEM 0.0175 µM | HCT-116 0.0175 µM | HL-60 0.0175 µM | LOX IMVI 0.0409 µM | Malme-3M 0.0175 µM | NCI-H460 0.0175 µM | OVCAR-8 0.0191 µM | PC-3 < 0.0001 µM | SF-539 0.0175 µM | SK-MEL-5 0.0175 µM | SNB-75 0.0175 µM | SR < 0.0001 µM | UO-31 0.857 µM

CN(C)CCN1C(=O)c2cccc3cc(N)cc(c23)C1=O [AMONAFIDE]
2.6 µM: HCT-15
active: NCI-H460 0.767 µM
inactive: CCRF-CEM 1.91 µM | HCT-116 1.87 µM | HL-60 2.24 µM | HOP-92 3.23 µM | LOX IMVI 2.46 µM | Malme-3M 3.31 µM | OVCAR-3 5.81 µM | OVCAR-5 4.83 µM | OVCAR-8 2.14 µM | PC-3 2.01 µM | SF-268 5.46 µM | SF-295 3.46 µM | SF-539 3.71 µM | SK-MEL-2 2.46 µM | SK-MEL-5 2.9 µM | SNB-75 5.33 µM | UO-31 4.18 µM
